Here are results for three molecules from patent US11918686B2, “Lipid bilayer coated mesoporous silica nanoparticles with a high loading capacity for one or more anticancer agents” (The Regents of the University of California, priority 2013, dated 2024).

The nature of data set [1]: Animal body weight during treatment. Type of data set: in vivo, nude mice. The settings on record: compared to saline-treated BxPC3 tumor-bearing mice. The procedure: (A) The animal treatments are described in the method section. BxPC3 cells were subcutaneously injected into mice 7 days before treatments (gray boxes). These animals received six i.v. injections (red boxes) every 3-6 days (green boxes) for 38 days as shown. The tumor inhibition effect of two-wave treatment was compared to saline, GEM-Lip alone, free GEM, empty liposome, and TGFβi-MSNP. Tumor size was accurately measured 1-2 times per week. Tumor weight was calculated according to the formula Tumor weight (mg)=(length in mm)×(width in mm)2/2. *P<0.05, compared to GEM-Lip group. (B) The animal weights were recorded at indicate time points and expressed for the experimental duration. *P<0.05, compared to saline; #P<0.05, compared to GEM-Lip. (C) Histological analyses of kidney sections were performed by UCLA DLAM diagnostic laboratory services. The sections were stained with hematoxylin/eosin (H&E) and examined by light microscopy. Representative images are shown. […]
One week after tumor implantation, the BxPC-3 tumor-bearing mice were randomly divided into six groups. […] The body weight and tumor size were accurately recorded one to two times per week. Tumor weight was calculated according to the formula Tumor weight (mg)=(length in mm)×(width in mm)^2/2.

Data set [2] is described as follows: Blood biochemistry. It is filed as in vivo, mice. The settings on record: serum. As to the method:
Following the animal experiments described above, the mice were sacrificed on the 38th day and serum was collected by centrifuging the whole blood at 5,000 rpm for 15 min. The biochemical parameters were assayed by UCLA Division of Laboratory Animal Medicine (DLAM) diagnostic laboratory services.

Data set [3] is described as follows: Histology of kidney, liver and spleen. It is filed as in vivo, mice. The settings on record: H&E, day 38. The procedure:
(A) The animal treatments are described in the method section. BxPC3 cells were subcutaneously injected into mice 7 days before treatments (gray boxes). These animals received six i.v. injections (red boxes) every 3-6 days (green boxes) for 38 days as shown. The tumor inhibition effect of two-wave treatment was compared to saline, GEM-Lip alone, free GEM, empty liposome, and TGFβi-MSNP. Tumor size was accurately measured 1-2 times per week. Tumor weight was calculated according to the formula Tumor weight (mg)=(length in mm)×(width in mm)2/2. *P<0.05, compared to GEM-Lip group. (B) The animal weights were recorded at indicate time points and expressed for the experimental duration. *P<0.05, compared to saline; #P<0.05, compared to GEM-Lip. (C) Histological analyses of kidney sections were performed by UCLA DLAM diagnostic laboratory services. The sections were stained with hematoxylin/eosin (H&E) and examined by light microscopy. Representative images are shown. Higher magnification images were provided to shown the swelling and edema occur in Bowman's space, a morphological abnormality of GEM-induced renal toxicity. White arrows point to normal Bowman's space in glomerulus, and the black arrows point to the swelling and edema occur in Bowman's space.
Appropriate size sections of the tumor, liver, kidney, and spleen were fixed in 10% formalin and then embedded into paraffin. […]

Data set [4] relates to cytidine deaminase (CDA); BxPC3 cells. Briefly: Protection against CDA-mediated GEM inactivation (MTS assay). It is filed as cell-based, human. The settings on record: CDA 100 ng/mL, 1 h at 37° C., then BxPC3 cells 72 h. The procedure:
We also assess the ability of the liposome to protect GEM against the effect of on cytidine deaminase (CDA), which plays a key role in drug inactivation (circulatory half-life of <8 minutes) in the clinic. Briefly, free GEM or GEM-laden liposomes were mixed with CDA enzyme at a concentration of 100 ng/mL in the incubation medium for 1 h at 37° C. The incubation media were then added to BxPC3 cells, which were cultured in 96 wells plate for 72 h. IC50 values were determined by the MTS assay for each group. The results were compared to the IC50 values for GEM or GEM-liposomes, not incubated with CDA. […] By contrast, free GEM was not protected against the effect of CDA.

Data set [5] has as its system PDAC. The settings on record: previously untreated PDAC patients with metastatic disease; cited from earlier work.
The conditions of data set [6]: in the clinic; cited from earlier work.
In data set [7] the test system is Smad2 phosphorylation in PCs. Briefly: Smad2 activation assay (pSmad2 immunofluorescence). Type of data set: cell-based, human. The settings on record: PCs treated with 2 ng/mL TGF-β, inhibitor dose of 1 M. As to the method: (A) HDME cells (10^4 cells/mL) and HSM cells (5×10^3 cells/mL) were first stained by CellTracker™ Green CMFDA (Invitrogen, Grand Island, NY) and CellTracker™ Red CMTPX (Invitrogen, Grand Island, NY) according the manufacture's instruction 24 h before experiment. After live cell staining, ECs were treated with 2 ng/mL of TGF-β for 3 h and PCs were treated with […] or TGFβi-MSNP at inhibitor dose of 1 μM for 3 h. Subsequently, both cell types were co-cultured in Matrigel-coated 6-well plates for further incubation of 16 h at 37° C. PC/EC adhesions were quantitatively determined from five fields of three independent samples with the fluorescent microscope (Zeiss, Germany). *, P<0.05. (B) Use of immunofluorescence assay to determine the level of Smad2 phosphorylation. PCs were seeded in 8-well chamber slides. 16 h post cell seeding, PCs were treated with 2 ng/mL TGF-β for 3 h. Subsequently, the cells were treated with TGFβi-laden MSNP at the inhibitor dose of 1 M for 1-24 h. […] The slides were visualized under a fluorescence microscope. (C) The signal intensity of the green channel, reflecting activated Smad2 (pSmad2), was calculated by Image J software (version 1.37c, NIH). *, P<0.05.
Smad2 activation was determined using an immunofluorescent staining in 8-well chamber slides in which 4×10^4 PCs were cultured in each well containing 0.4 mL culture medium. […]

The subject of data set [8] is PC coverage of ECs in BxPC3 xenograft. Briefly: CD31/NG2 co-staining of ECs and PCs in BxPC3 xenograft. It is filed as in vivo, nude mice. The settings on record: i.v., inhibitor dose 1 mg/kg, tumor collected 1-2 h post injection. The procedure: “T” indicates tumor cells. Arrows point out stroma. (B) Tumor-bearing animals (tumor size of 0.8˜1.0 cm in diameter) were divided into two groups and received i.v. injection of TGFβi-MSNP at inhibitor dose of 1 mg/kg (MSNP dose of 2 mg/kg). Saline and i.v. injection of free inhibitor at same dose were used as control. Tumor tissues were quickly collected 1-2 h post injection and OCT embedded for frozen section and dual color immunohistochemistry staining. The procedure of the staining was provided in the method section. This dual color staining that labels EC maker CD31 in green (FITC) and PC maker NG2 in red (Alexa fluor 594) were used to compare the effect of tumor blood vessel integrity and quantify the extent of PC/EC association. Zoom-in images were provided at higher magnification to show the extent of PC/EC association in each group. PC covered EC were quantified in three random fields in each group. *, P<0.05. […]
The tumor tissues were rapidly embedded by OCT reagent before sectioning to provide 4 m thick slices. […] The slides were visualized under a fluorescence microscope. The PC coverage was counted from three randomly selected fields.

In data set [9] the test system is tumor. The settings on record: animal study; cited from earlier work.

For the molecule `Nc1ccn([C@@H]2O[C@H](CO)[C@@H](O)C2(F)F)c(=O)n1` [Free GEM, gemcitabine], the body weight change entry in [1] was “reduced weight gain”. In [2] (day 38), this molecule came in with an ALB of 3.2 ± 0.1 g/dL, an ALP of 55.8 ± 9.8 U/L, an ALT of 42.5 ± 33.8 U/L and an AST of 222 ± 178 U/L. Further, in data set [2] (day 38), the BUN was determined as 38.0 ± 11.3 mg/dL, the CA turned out to be 9.4 ± 0.3 mg/dL, the CHOL is reported as 58.7 ± 4.0 mg/dL and the CK was 512.0 ± 39.6 U/L. In [2] (day 38), the CO2 was 20.5 ± 2.8 mEq/L, the CREAT is recorded as 0.2 ± 0.0 mg/dL, the DBILI is 0.7 ± 0.5 mg/dL and the GGT was determined as 5.3 ± 1.155 U/L. In addition, in data set [2] (day 38), the GLU was found to be 128.3 ± 16.9 mg/dL, the PHOS was 6.1 ± 1 mg/dL, the TBILI came to 0.5 ± 0.2 mg/dL and the TP is 5.1 ± 0.2 g/dL. In data set [2] (day 38, BUN-to-creatinine ratio), the BUN CR was found to be 191 ± 16. Moreover, in data set [3], the “kidney histology (glomerular swelling and edema of Bowman's space)” value was “intermediate nephrotoxicity”. For the same molecule, the “protection of GEM against CDA” value in data set [4] is on record as “not protected”. Besides, in data set [5], the median overall survival was 6.7 months. Besides, the circulatory half-life in [6] is < 8 min.
Consider `c1ccc(-c2[nH]ncc2-c2ccnc3ccccc23)nc1` [LY364947], for which the “duration of inhibition of Smad2 phosphorylation” value in data set [7] amounted to 6 h. Further, the “composite fluorescence staining of PC overlap with ECs in tumor” value in data set [8] was “slight but non-significant reduction”.
Turning to `CC(=O)O[C@H]1C(=O)[C@@]2(C)[C@H]([C@H](OC(=O)c3ccccc3)[C@]3(O)C[C@H](OC(=O)[C@H](O)[C@@H](NC(=O)c4ccccc4)c4ccccc4)C(C)=C1C3(C)C)[C@]1(OC(C)=O)CO[C@@H]1C[C@@H]2O` [paclitaxel], the “increase of GEM content in the tumor” value in data set [9] is 2.8 fold.
